Assay results as given in patent US20260078089A1, “BIOACTIVE PHYTOCHEMICALS IN ZIZYPHUS AND GUARANA” (Phytoquest Limited, priority 2018, published 2026).

How the values were obtained:
male ddy mouse = experiment: Sucrose loading test, blood glucose in mice; format: in vivo; conditions: oral sucrose 2.5 g/kg, test sample 500 mg/kg body weight, mean n = 5
Procedure: The animal experimental protocols in this study were approved by the Animal Experiments Committee of the University of Toyama (S-2010 UH-2). Male ddy mice (29-33 g) after an overnight fast were used for acute disaccharide loading tests. Maltose (2.5 g/kg body weight) or Sucrose (2.5 g/kg body weight) as well as the test samples were dissolved in 0.9% NaCl solution and administered to mice via a stomach tube. A control group was loaded with saline only.
Blood samples for glucose measurements were obtained from the tail vein at 0, 15, 30, 60, and 120 min after disaccharide-loading. The blood glucose levels were measured by a portable kit, Antsence II™ (Sankyo Co. Ltd. Tokyo, Japan). The Zizyphus extract HS0810/142/41 as well as the purified compounds were tested in this way.

[1] = test system: sialidase (NanH from T. forsythia); experiment: Sialidase assay with MUNANA substrate; format: biochemical, Tannerella forsythia; conditions: 1 mM inhibitor, 2.5 nM sialidase, 0.1 mM MUNANA, pH 7.2
Procedure: (§1) Sialidase assays used 1 mM inhibitor (or water without inhibitor) and 2.5 nM sialidase (including NanH from T. forsythia) incubated in the presence of 0.1 mM methylumbeliferyl-N-acetylneuraminic acid, pH 7.2 in 20 mM sodium phosphate buffer. Reactions were stopped at 30 seconds and 60 seconds via addition of ph 10.5 60 mM sodium carbonate buffer. Release of fluorogenic MU was quantified by measuring fluorescence emission at 450 nm, excitation 350 nm. Percentage sialidase activity was expressed as the change in fluorescence between 30 seconds and 60 seconds compared to that of a reaction without inhibitor. Reactions were carried out in triplicate.
MU release can be used to quantify sialidase activity.
as §1, with “1” for “Sialidase assays used 1”, “forsythia) was” for “forsythia)”, “MUNANA,” for “methylumbeliferyl-N-acetylneuraminic acid,”, “7.2” for “7.2 in”, “Sodium Phosphate” for “sodium phosphate”

glucosidases = experiment: Glycosidase panel, glucosidases overall; format: biochemical; conditions: panel of glucosidases
Procedure: Glycosidase assays were conducted on Compounds 1 and 3 and an extract of Zizyphus used in the disaccharide loading mouse studies to determine if glucosidase inhibition might explain the effects on blood glucose. A panel of glycosidases were used to be sure any activity found was a selective inhibition and not just non-specific binding to the enzyme.
Glycosidase assays were conducted as described by Watson et al. (Phytochemistry 1997, 46, 255) using p-nitrophenyl-substrates (except sialidase which used methylumbeliferyl-N-acetyineuraminic acid as substrate). Assays were carried out in microtitre plates. Enzymes were assayed in 0.1 M citric acid/0.2 M di-sodium hydrogen phosphate (McIlvaine) buffers at the optimum pH for the enzyme. All assays were carried out at 20° C. All enzymes and substrates were purchased from Sigma Aldrich Chemicals Limited. The incubation mixture consisted of 10 μl of enzyme solution, 10 μl of the iminosugars solution and 50 μl of the appropriate 5 mM p-nitrophenyl substrate made up in McIlvaine buffer at the optimum pH for the enzyme. The reactions were stopped with 0.4 M glycine (pH 10.4) during the exponential phase of the reaction. Absorbances were read at 405 nm. Water was substituted for the alkaloids in the blanks. Reactions were carried out in triplicate. […]

In the case of `OC[C@H]1N[C@H](CO)[C@@H](O)[C@@H]1O` [DMDP], the blood glucose (male ddy mouse; 0 min after administration) is reported as 98 mg/dL, the blood glucose (male ddy mouse; 15 min after administration) is reported as 115 mg/dL and the blood glucose (male ddy mouse; 30 min after administration) is reported as 100 mg/dL. For the same molecule, the blood glucose (male ddy mouse; 60 min after administration) was 88 mg/dL, the blood glucose (male ddy mouse; 120 min after administration) was 53 mg/dL and the “% inhibition” value [1] was −2%. The “glucosidase inhibition (in words)” value (glucosidases) was “expected strong inhibition of various glucosidases”.
